In patent US20120122948A1, “3-ALKYL-5-FLUOROINDOLE DERIVATIVES AS MYELOPEROXIDASE INHIBITORS” (UNIVERSITE LIBRE DE BEUXELLES, priority 2009, published 2012):
Counter-ions that a name gives are not always drawn. Like-named read-outs stand apart in the source and are kept apart here.

Key:
[1] = target: T1, MPO (Homo sapiens, UniProt P05164); test: Inhibition of LDL oxidation by MPO, ELISA with Mab AG9; type: biochemical; settings: for LDL oxidation (%) / remaining activity at 0.05 µM / remaining activity at 0.1 µM / remaining activity at 1 µM: 5 min
T1 construct: made in house
T1 sequence (P05164 49-745): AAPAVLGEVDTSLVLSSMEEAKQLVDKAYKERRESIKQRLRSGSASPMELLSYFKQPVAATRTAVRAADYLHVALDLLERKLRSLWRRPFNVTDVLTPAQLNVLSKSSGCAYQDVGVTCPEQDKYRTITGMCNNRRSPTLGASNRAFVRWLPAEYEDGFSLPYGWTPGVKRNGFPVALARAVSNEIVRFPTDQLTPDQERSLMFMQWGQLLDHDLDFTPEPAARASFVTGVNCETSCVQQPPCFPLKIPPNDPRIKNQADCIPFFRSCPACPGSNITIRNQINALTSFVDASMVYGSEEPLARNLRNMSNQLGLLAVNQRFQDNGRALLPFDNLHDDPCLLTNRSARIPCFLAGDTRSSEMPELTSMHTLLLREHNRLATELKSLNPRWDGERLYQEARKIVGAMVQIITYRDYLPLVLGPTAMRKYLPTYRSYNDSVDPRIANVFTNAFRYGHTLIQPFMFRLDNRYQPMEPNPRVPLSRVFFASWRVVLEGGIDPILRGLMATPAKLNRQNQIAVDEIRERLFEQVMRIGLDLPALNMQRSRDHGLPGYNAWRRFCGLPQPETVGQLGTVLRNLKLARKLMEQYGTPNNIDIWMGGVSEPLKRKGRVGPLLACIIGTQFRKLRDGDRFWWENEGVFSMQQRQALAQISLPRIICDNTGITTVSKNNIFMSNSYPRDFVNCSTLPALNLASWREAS
Description: Recombinant MPO was prepared as previously described. Each batch solution is characterized by its protein concentration (mg/ml), its activity (U/ml), and its specific activity (U/mg). The chlorination activity was determined according to Hewson and Hager. Human plasma served for the isolation of LDL by ultracentrifugation according to Havel et al. Before oxidation, the LDL fraction (1.019<d<1.067 g/ml) was desalted by two consecutive passages through PD10 gel-filtration columns (Amersham Biosciences, The Netherlands) using PBS buffer. The different steps were carried out in the dark and the protein concentration was measured by the Lowry assay for both MPO and LDL.
The LDL oxidation was carried out at 37° C. in a final volume of 500 μl. The reaction mixture contained the following reagents at the final concentrations indicated between brackets: pH 7.2, PBS buffer, MPO (1 μg/ml), LDL (1000 μg/ml), 2 μl HCl 1N (4 mM), a compound of formula (Ia) of the present invention (50, 100 and 1000 nM), and H2O2 (100 μM). The reaction was stopped after 5 min by cooling the tubes in ice. The assay was performed as described by Moguilevsky et al. (Moguilevsky N., Zouaoui Boudjeltia Z., Babar S., Delrée P., Legssyer I., Carpentier Y., Vanhaeverbeek M., Ducobu J. Monoclonal antibodies against LDL progressively oxidized by myeloperoxidase react with ApoB-100 protein moiety and human atherosclerotic lesions. Biochem. Biophys. Res. Commun. 2004, 323, 1223-1228) in a NUNC maxisorp plate (VWR, Zaventem, Belgium): 200 ng/well of LDL was coated overnight at 4° C. in a sodium bicarbonate pH 9.8 buffer (100 μl). Afterwards, the plate was washed with TBS 80 buffer and then saturated during 1 h at 37° C. with the PBS buffer containing 1% BSA (150 μl/well). After washing the wells twice with the TBS 80 buffer, the monoclonal antibody Mab AG9 (200 ng/well) obtained according to a standard protocol and as previously described was added as a diluted solution in PBS buffer with 0.5% BSA and 0.1% of Polysorbate 20. After incubation for 1 h at 37° C., the plate was washed four times with the TBS 80 buffer and a 3000 times diluted solution of Ig G anti-mouse Alkaline Phosphatase (Promega, Leiden, The Netherlands) in the same buffer was added (100 μl/well). The wells were washed again four times and a revelation solution (150 μl/well) containing 5 mg of para-nitrophenyl phosphate in 5 ml of diethanolamine buffer was added for 30 min at room temperature. The reaction was stopped with 60 μl/well of NaOH 3 N solution. The measurement of the absorbance was performed at 405 nm with a background correction at 655 nm with a Bio-Rad photometer for a 96-well plate (Bio-Rad laboratories, CA, USA). Results were expressed as means of the percentage of LDL oxidation for six independent measurements.

[2] = target: T1, MPO; test: Myeloperoxidase inhibition (MPO) assay, taurine chloramine production by the MPO/H2O2/Cl- system; type: biochemical; settings: for 1/IC50: inhibition capability expressed as 1/IC50
Excerpt: The assay was based on the production of taurine chloramine produced by the MPO/H2O2/Cl^− system in the presence of a selected inhibitor at defined concentration. The procedure for detecting the inhibition of myeloperoxidase has been described in Van Antwerpen et al. (Development and validation of a screening procedure for the assessment of inhibition using a recombinant enzyme, Talanta, 2008, 75(2), 503-510) and is incorporated herewith by reference. Briefly, the reaction mixture contained the following reagents in a final volume of 200 μl: pH 7.4 phosphate buffer (PO4^3−10 mM/NaCl 300 mM), taurine (15 mM), a compound to be tested (up to 20 μM), and the fixed amount of the recombinant MPO (6.6 μl of MPO batch solution diluted 2.5 times, 40 nM). When necessary, the volume was adjusted with water. This mixture was incubated at 37° C. and the reaction initiated with 10.0 μl of H2O2 (100 μM). After 5 minutes, the reaction was stopped by the addition of 10 μl of catalase (8 U/μl). To determine the amount of taurine chloramines produced, 50 μl of 1.35 mM solution of thionitrobenzoic acid were added and the volume adjusted to 300 μl with water. Then, the absorbance of the solutions was measured at 412 nm with a microplate reader and the curve of the absorbance as a function of the inhibitor concentration was plotted. IC50 values against myeloperoxidase enzyme were then determined using standard procedures taking into account the absence of hydrogen peroxide as 100% of inhibition and the absence of inhibitors as 0% of inhibition.

[3] = compound 50 nM, MPO 1 μg/ml, LDL 1000 μg/ml, pH 7.2, 37° C., mean of six measurements
[4] = compound 100 nM, MPO 1 μg/ml, LDL 1000 μg/ml, pH 7.2, 37° C., mean of six measurements
[5] = compound 1000 nM, MPO 1 μg/ml, LDL 1000 μg/ml, pH 7.2, 37° C., mean of six measurements
[6] = recombinant MPO 40 nM, pH 7.4 phosphate buffer, 37° C., H2O2 100 μM, 5 minutes
[7] = pH 7.2, read-out: LDL oxidation (%)
[8] = pH 7.2, compound 50 nM, MPO 1 μg/ml, LDL 1000 μg/ml, pH 7.2, 37° C., mean of six measurements, read-out: LDL oxidation (%)
[9] = pH 7.2, compound 100 nM, MPO 1 μg/ml, LDL 1000 μg/ml, pH 7.2, 37° C., mean of six measurements, read-out: LDL oxidation (%)
[10] = pH 7.2, compound 1000 nM, MPO 1 μg/ml, LDL 1000 μg/ml, pH 7.2, 37° C., mean of six measurements, read-out: LDL oxidation (%)
[11] = value given in nM in the text on FIG. 2

Compound | inhibition of LDL oxidation (in words) ([1]; at low concentration) | LDL oxidation (%) [1, 3] [%] | LDL oxidation (%) [1, 4] [%] | LDL oxidation (%) [1, 5] [%] | 1/IC50 [2] [µM⁻¹] | IC50 [2, 6] [nM] | remaining activity at 0.05 µM [1, 7] [%] | remaining activity at 0.1 µM [1, 7] [%] | remaining activity at 1 µM [1, 7] [%] | remaining activity at 0.05 µM [1, 8] [%] | remaining activity at 0.1 µM [1, 9] [%] | remaining activity at 1 µM [1, 10] [%] | IC50 [2, 11] [nM] | inhibition of LDL oxidation (in words) ([1]; irrespective of its concentration in the medium)
N-Methyl-3-(3-aminopropyl)-5-fluoro-[1H]-indole tartrate [Compound G] | excellent results | 32.9 | 24.8 | 10.2 | 6 ± 2 | 200 ± 200 |  |  |  |  |  |  |  | 
CN(C)CCc1c[nH]c2ccc(F)cc12 [Compound D, N,N-Dimethyl-3-(2-aminoethyl)-5-fluoro-[1H]-indole] |  |  |  |  | 14 ± 7 | 90 ± 60 | 91.7 | 64.2 | 9.9 |  |  |  |  | 
NCCCCCc1c[nH]c2ccc(F)cc12 [Compound K, 3-(5-Aminopentyl)-5-fluoro-[1H]-indole oxalate] | powerful performance |  |  |  | 122 ± 15 | 8 |  |  |  | 29.5 | 23.4 | 3.2 | 8 ± 1 | 
NCCCCCCc1c[nH]c2ccc(F)cc12 [Compound L, 3-(6-Aminohexyl)-5-fluoro-[1H]-indole oxalate] |  |  |  |  | 3.8 ± 0.2 | 260 ± 10 |  |  |  | 91.8 | 56.1 | 18.2 |  | 
N-Propyl-3-(3-aminopropyl)-5-fluoro-[1H]-indole [Compound J] |  | 79.9 | 42.5 | 5.6 | 6 ± 1 | 170 ± 30 |  |  |  |  |  |  |  | 
CN(C)CCCc1c[nH]c2ccc(F)cc12 [Compound H, N,N-Dimethyl-3-(3-aminopropyl)-5-fluoro-[1H]indole tartrate] |  |  |  |  | 11 ± 8 | 130 ± 90 |  |  |  | 42.4 | 39.7 | 8.4 |  | 
NCCc1c[nH]c2ccc(F)cc12 [Compound A, 5-fluorotryptamine, reference compound] |  |  |  |  | 5 ± 0.6 | 200 | 119 | 111 | 41.5 |  |  |  |  | poorly effective
NCCCc1c[nH]c2ccc(F)cc12 [Compound B, 3-(3-Aminopropyl)-5-fluoro-[1H]-indole] | excellent results |  |  |  | 20 ± 4 | 50 ± 8 |  |  |  | 26 | 19 | 9 |  | 
Fc1ccc2[nH]cc(CCN3CCCC3)c2c1 [Compound E, 5-Fluoro-3-[2-(1-pyrrolidinyl)ethyl]-[1H]-indole] |  |  |  |  | 32 ± 19 | 40 ± 30 | 49.2 | 47.9 | 12.1 |  |  |  |  | 
NCCCCc1c[nH]c2ccc(F)cc12 [Compound C, 3-(4-Aminobutyl)-5-fluoro-[1H]-indole oxalate] | powerful performance |  |  |  | 72 ± 19 | 15 |  |  |  | < 18.5 | < 18.5 | 6.1 | 15 ± 4 | 
CCN(CC)CCc1c[nH]c2ccc(F)cc12 [Compound F, N,N-Diethyl-3-(2-aminoethyl)-5-fluoro-[1H]-indole] |  |  |  |  | 7 ± 3 | 160 ± 80 | 80.1 | 60.2 | 8 |  |  |  |  | 
